How the values were obtained:
[1] = molecular target: T1, Tyrosine-protein phosphatase non-receptor type 1 (Homo sapiens, UniProt P18031); experiment: Inhibition of PTP1B (unknown origin) using nitrophenyl phosphate as substrate after 30 mins by spectrophotometry
T1 sequence (P18031 whole entry): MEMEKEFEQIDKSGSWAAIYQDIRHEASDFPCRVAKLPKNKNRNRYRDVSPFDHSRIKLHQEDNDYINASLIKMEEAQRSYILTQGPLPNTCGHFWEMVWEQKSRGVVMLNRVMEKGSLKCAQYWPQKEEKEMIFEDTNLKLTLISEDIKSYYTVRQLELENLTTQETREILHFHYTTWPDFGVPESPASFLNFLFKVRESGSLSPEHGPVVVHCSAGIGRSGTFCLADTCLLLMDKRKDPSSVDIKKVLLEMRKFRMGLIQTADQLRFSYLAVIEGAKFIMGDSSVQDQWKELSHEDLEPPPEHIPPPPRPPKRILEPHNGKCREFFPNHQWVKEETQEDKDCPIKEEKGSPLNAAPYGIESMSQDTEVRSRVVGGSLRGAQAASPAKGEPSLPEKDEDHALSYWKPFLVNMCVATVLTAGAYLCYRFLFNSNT

[2] = tested on: A-431; experiment: Cytotoxicity against human A431 cells at 100 uM by SRB method; type: cell-based; conditions: a-431, 100 µM

Row | SMILES | IC50 [1] [µM] | Activity [2]
1 | CC1=CC(C)(C)N=C2C[C@@]3(C)CC(=O)C(C(C)C)=CC3=C12 | 9.97 | Non-toxic
2 | CC1=CC(C)(C)N=C2C[C@]3(C)C(=O)C(C)(C)N=C3C(C)=C12 | 6.44 | Non-toxic
3 | CC1=CC(C)(C)N=C2C[C@@]3(C)CC(=O)C(C(C)C)=C3C=C12 | 9.71 | Non-toxic

— ChEMBL document CHEMBL3232899, “Highly conjugated norditerpenoid and pyrroloquinoline alkaloids with potent PTP1B inhibitory activity from Nigella glandulifera” (J Nat Prod, 2014)
